Data published in publication PMC6792352, “Limited Chemical Structural Diversity Found to Modulate Thyroid Hormone Receptor in the Tox21 Chemical Library” (Environmental Health Perspectives, 2019).
Where a name gives a salt, the structure may show the parent alone.

Assay: in vitro
Details: rat, gh3-tre-luc cells, AC50 (uM) modified / 1000

CC/C=C\CC/C=C/CO [trans-2,cis-6-Nonadien-1-ol] and CCCC/C=C/CCCCO [(E)-5-Decen-1-ol] cannot be ordered by CC50 at 24 h: greater than 90 µM for the first, greater than 90 µM for the second.

CC(C(=O)O)c1ccc(C2CCCCC2)c2ccccc12 (stereo not shown) [Quadrisol] and O=[N+]([O-])c1cccc2ccccc12 [1-Nitronaphthalene] cannot be ordered by CC50 at 24 h: greater than 50 µM for the first, greater than 90 µM for the second.

CN1COCN(Cc2cnc(Cl)s2)/C1=N/[N+](=O)[O-] [Thiamethoxam] and Cn1c(=O)c2c(ncn2CC(O)CO)n(C)c1=O (stereo not shown) [Dyphylline] cannot be ordered by CC50 at 24 h: greater than 90 µM for the first, greater than 20 µM for the second.

Cc1cccc(C)c1NC(=O)CN1CCCC1 [Pyrrocaine] and NS(=O)(=O)c1cc(C(=O)O)cc(N2CCCC2)c1Oc1ccccc1 [Piretanide] cannot be ordered by CC50 at 24 h: greater than 50 µM for the first, greater than 20 µM for the second.

Going from CC1CC(CC2CCC(N)C(C)C2)CCC1N (stereo not shown) [Bis(4-amino-3-methylcyclohexyl)methane] to C#C[C@]1(O)C=C[C@H]2[C@@H]3CCC4=CC(=O)CC[C@@H]4[C@H]3CC[C@@]21CC [Gestodene], the CC50 at 24 h rises from 46.8 µM to greater than 50 µM.

O=C(O)CN(CCN(CC(=O)O)CC(=O)O)CCN(CC(=O)O)CC(=O)O [Pentetic acid] and Nc1nc2c(c(=O)[nH]1)N(C=O)C(CNc1ccc(C(=O)N[C@@H](CCC(=O)O)C(=O)O)cc1)CN2 (stereo partly shown) [Calcium folinate pentahydrate] cannot be ordered by CC50 at 24 h: 25 µM for the first, greater than 20 µM for the second.

O=C(O)c1ccc2c(c1)nc(C(=O)NC1CCN(C3CC3)CC1)n2Cc1cc(-c2ccc(Cl)s2)on1 [AVE3247] and O=C(O)c1cc(/N=N/c2ccc(O)c(C(=O)O)c2)ccc1O [Olsalazine sodium] cannot be ordered by CC50 at 24 h: greater than 20 µM for the first, greater than 50 µM for the second.

OC[C@H]1O[C@@H]2O[C@H]3[C@H](O)[C@@H](O)[C@@H](O[C@H]4[C@H](O)[C@@H](O)[C@@H](O[C@H]5[C@H](O)[C@@H](O)[C@@H](O[C@H]6[C@H](O)[C@@H](O)[C@@H](O[C@H]7[C@H](O)[C@@H](O)[C@@H](O[C@H]8[C@H](O)[C@@H](O)[C@@H](O[C@H]9[C@H](O)[C@@H](O)[C@@H](O[C@H]1[C@H](O)[C@H]2O)O[C@@H]9CO)O[C@@H]8CO)O[C@@H]7CO)O[C@@H]6CO)O[C@@H]5CO)O[C@@H]4CO)O[C@@H]3CO [gamma-Cyclodextrin] and C[C@H]1O[C@@H](O[C@H]2CC[C@@]3(C)[C@H](CC[C@@H]4[C@@H]3C[C@@H](O)[C@]3(C)[C@@H](C5=CC(=O)OC5)CC[C@]43O)C2)C[C@H](O)[C@@H]1O[C@H]1C[C@H](O)[C@H](O[C@H]2C[C@H](O)[C@H](O[C@@H]3O[C@H](CO)[C@@H](O)[C@H](O)[C@H]3O)[C@@H](C)O2)[C@@H](C)O1 [Deslanoside] cannot be ordered by CC50 at 24 h: greater than 30 µM for the first, greater than 50 µM for the second.

CC(C)Cc1ccc(CC(=O)O)cc1 [Ibufenac] and CNNCc1ccc(C(=O)NC(C)C)cc1 [Procarbazine hydrochloride] cannot be ordered by CC50 at 24 h: greater than 50 µM for the first, greater than 50 µM for the second.

CC(=O)C(C)C [3-Methyl-2-butanone] and CC[C@H](C)[C@H](N)C(=O)O (racemic) [DL-Isoleucine] cannot be ordered by CC50 at 24 h: greater than 100 µM for the first, greater than 50 µM for the second.

NCc1ccccc1Sc1ccccc1CO [Bipenamol] and CCN(C(=O)N(CC)c1ccccc1)c1ccccc1 [N,N'-Diethylcarbanilide] cannot be ordered by CC50 at 24 h: greater than 50 µM for the first, greater than 90 µM for the second.

First: CCCCCCCCCCCC[N+](C)(C)Cc1ccccc1 [Benzyldimethyldodecylammonium chloride]
Second: CCCCCCCCCO [1-Nonanol]
The CC50 at 24 h of the first is lower: 10.6 µM for the first, greater than 90 µM for the second.

CC(NN)c1ccccc1 (stereo not shown) [Mebanazine] and C=Cc1ccccc1 [Styrene] cannot be ordered by CC50 at 24 h: greater than 50 µM for the first, greater than 90 µM for the second.

CCN(CC)C(=O)[C@]1(c2ccccc2)C[C@@H]1CN (racemic) [Milnacipran hydrochloride] and Fc1ccccc1 [Fluorobenzene] cannot be ordered by CC50 at 24 h: greater than 50 µM for the first, greater than 90 µM for the second.

O=P(O)(O)OC[C@H](O)CO [sn-Glycerol 3-phosphate bis(cyclohexylammonium)] and CC(CO)OC(C)CO (stereo not shown) [Dipropylene glycol] cannot be ordered by CC50 at 24 h: greater than 50 µM for the first, greater than 90 µM for the second.

C#Cc1cccc(Nc2ncnc3cc(OCCOC)c(OCCOC)cc23)c1 [Erlotinib] and COc1ncnc(NS(=O)(=O)c2ccc(N)cc2)c1OC [Sulfadoxine] cannot be ordered by CC50 at 24 h: greater than 50 µM for the first, greater than 50 µM for the second.

CCN(O)CC [N,N-Diethylhydroxylamine] and CNCCO [N-Methylethanolamine] cannot be ordered by CC50 at 24 h: greater than 90 µM for the first, greater than 90 µM for the second.

c1ccc(-c2ccc(-c3ccccc3)cc2)cc1 [1,1':4',1''-Terphenyl] and C(=C(c1ccccc1)c1ccccc1)c1ccccc1 [Triphenylethylene] cannot be ordered by CC50 at 24 h: greater than 20 µM for the first, greater than 90 µM for the second.

CC[C@H](C)[C@@H]1NC(=O)[C@H](Cc2ccc(O)cc2)NC(=O)[C@@H](N)CSSC[C@@H](C(=O)N2CCC[C@H]2C(=O)N[C@@H](CC(C)C)C(=O)NCC(N)=O)NC(=O)[C@H](CC(N)=O)NC(=O)[C@H](CCC(N)=O)NC1=O [Oxytocin acetate] and COCc1c(C(C)C)nc(C(C)C)c(/C=C/[C@@H](O)C[C@@H](O)CC(=O)O)c1-c1ccc(F)cc1 [Cerivastatin sodium] cannot be ordered by CC50 at 24 h: greater than 50 µM for the first, greater than 50 µM for the second.

First: CS(=O)(=O)c1ccc([C@@H](O)[C@@H](COC(=O)CN)NC(=O)C(Cl)Cl)cc1 [Thiamphenicol glycinate hydrochloride]
Second: CCCCCCCCN[C@@H](C)[C@H](O)c1ccc(SC(C)C)cc1 (racemic) [Suloctdil]
The CC50 at 24 h of the first is higher: greater than 50 µM for the first, 4.84 µM for the second.

CCCCCCCCCCCCCCCCCCCCCC(=O)Nc1ccn([C@@H]2O[C@H](CO)[C@@H](O)[C@@H]2O)c(=O)n1 [Enocitabine] and CN[C@@H]1[C@H](O)[C@H](NC)[C@H]2O[C@@]3(O)C(=O)C[C@@H](C)O[C@H]3O[C@@H]2[C@H]1O [Spectinomycin dihydrochloride] cannot be ordered by CC50 at 24 h: greater than 50 µM for the first, greater than 20 µM for the second.

C=C(C)C(N)=O [Methacrylamide] and C[C@@H](O)[C@H](N)C(=O)O [L-Threonine] cannot be ordered by CC50 at 24 h: greater than 90 µM for the first, greater than 50 µM for the second.

CCO[Si](CC(C)C)(OCC)OCC [Triethoxy(2-methylpropyl)silane] and CC(C)CCCC(C)N (stereo not shown) [2-Amino-6-methylheptane] cannot be ordered by CC50 at 24 h: greater than 90 µM for the first, greater than 50 µM for the second.

c1ccc2[nH]cnc2c1 [Benzimidazole] and Nc1ccccc1N [1,2-Phenylenediamine dihydrochloride] cannot be ordered by CC50 at 24 h: greater than 90 µM for the first, greater than 90 µM for the second.

Cc1nc(-c2ccc(OCC(C)C)c(C#N)c2)sc1C(=O)O [Febuxostat] and COc1ccc(S(=O)(=O)Nc2nnc(CC(C)C)s2)cc1 [Glysobuzole] cannot be ordered by CC50 at 24 h: greater than 50 µM for the first, greater than 50 µM for the second.

CCN1CCCC1=O [1-Ethyl-2-pyrrolidinone] and O=C1CCCN1CCO [1-(2-Hydroxyethyl)pyrrolidin-2-one] cannot be ordered by CC50 at 24 h: greater than 90 µM for the first, greater than 90 µM for the second.

Cc1c(N=C=O)cccc1N=C=O [Toluene-2,6-diisocyanate] and Cc1ccc(O)c(C)c1 [2,4-Dimethylphenol] cannot be ordered by CC50 at 24 h: greater than 90 µM for the first, greater than 90 µM for the second.

ClCCCl [1,2-Dichloroethane] and CCCCC#N [Valeronitrile] cannot be ordered by CC50 at 24 h: greater than 90 µM for the first, greater than 90 µM for the second.

S=C=S [Carbon disulfide] and Cc1ccc(C(C)(C)O)cc1 [p-Cymen-8-ol] cannot be ordered by CC50 at 24 h: greater than 90 µM for the first, greater than 90 µM for the second.

COC(=O)Nc1ccc(Cl)c(Cl)c1 [Swep] and CCOC(=O)c1cccnc1 [Ethyl nicotinate] cannot be ordered by CC50 at 24 h: greater than 90 µM for the first, greater than 50 µM for the second.

Going from O=C(CCCN1CCN(c2ccc(F)cc2)CC1)NC1c2ccccc2CSc2ccccc21 (stereo not shown) [Monatepil] to CC1(CN2CCC(n3c(=O)[nH]c4ccccc43)CC2)OCc2ccccc2-n2cccc21 (stereo not shown) [Zaldaride], the CC50 at 24 h rises from 11.9 µM to 32.7 µM (2.7-fold).

Compared with COc1ccc2cc1Oc1ccc(cc1)C[C@H]1c3c(cc4c(c3Oc3cc5c(cc3OC)CCN(C)[C@@H]5C2)OCO4)CCN1C [Cepharanthine], CN(C)CCC[C@@]1(c2ccc(F)cc2)OCc2cc(C#N)ccc21 [Escitalopram oxalate] is higher in CC50 at 24 h: 12.3 µM for the first, greater than 50 µM for the second.

SCCc1cnccn1 [Pyrazineethanethiol] and C#CCOC(=O)[C@@H](C)Oc1ccc(Oc2ncc(Cl)cc2F)cc1 [Clodinafop-propargyl] cannot be ordered by CC50 at 24 h: greater than 90 µM for the first, greater than 90 µM for the second.

CCCCC1=NC2(CCCC2)C(=O)N1Cc1ccc(-c2ccccc2-c2nnn[nH]2)cc1 [Irbesartan] and O=C(OCCOCCO)c1ccccc1Nc1cccc(C(F)(F)F)c1 [Etofenamate] cannot be ordered by CC50 at 24 h: greater than 50 µM for the first, greater than 20 µM for the second.

CCn1cc(C(=O)O)c(=O)c2cc(F)c(N3CCNCC3)nc21 [Enoxacin] and CCOc1ccc2nc3cc(N)ccc3c(N)c2c1 [Ethacridine lactate hydrate] cannot be ordered by CC50 at 24 h: greater than 20 µM for the first, greater than 50 µM for the second.

With CO/N=C(\C(=O)N[C@@H]1C(=O)N2C(C(=O)O)=C(COC(N)=O)CS[C@H]12)c1ccco1 [Cefuroxime] the CC50 at 24 h was greater than 90 µM.

Same assay, conditions: rat, gh3-tre-luc cells, AC50 (uM) modified / 1000, Tox21_110001=Tox21_110501; viability, 1 nM T3 present, 24 h

Work on CNC(C)(C)Cc1ccccc1 [Mephentermine hemisulfate] yielded a CC50 at 24 h greater than 20 µM.

Same assay, conditions: rat, gh3-tre-luc cells, AC50 (uM) modified / 1000, Tox21_110001=Tox21_112865; viability, 1 nM T3 present, 24 h

With CCN[C@H](C)Cc1cccc(C(F)(F)F)c1 [(-)-Fenfluramine hydrochloride] the CC50 at 24 h was 52.7 µM.

Same assay, conditions: rat, gh3-tre-luc cells, AC50 (uM) modified / 1000, Tox21_110001=Tox21_200152; viability, 1 nM T3 present, 24 h

Compound CCOC(=O)CBr [Ethyl bromoacetate] has a CC50 at 24 h greater than 90 µM.

Same assay, conditions: rat, gh3-tre-luc cells, AC50 (uM) modified / 1000, Tox21_110001=Tox21_200830; viability, 1 nM T3 present, 24 h

CC(=O)Nc1ccc2c(c1)Cc1ccccc1-2 [2-Acetylaminofluorene] gave a CC50 at 24 h greater than 90 µM.

Same assay, conditions: rat, gh3-tre-luc cells, AC50 (uM) modified / 1000, Tox21_110001=Tox21_201036; viability, 1 nM T3 present, 24 h

Compound OCCBr [2-Bromo-1-ethanol] has a CC50 at 24 h greater than 90 µM.

Same assay, conditions: rat, gh3-tre-luc cells, AC50 (uM) modified / 1000, Tox21_110001=Tox21_202229; viability, 1 nM T3 present, 24 h

Compound [Cl][Cd][Cl] [Cadmium chloride] has a CC50 at 24 h of 26.6 µM.

Same assay, conditions: rat, gh3-tre-luc cells, AC50 (uM) modified / 1000, Tox21_110001=Tox21_300810; viability, 1 nM T3 present, 24 h

With CCOC(=O)Cc1ccccc1 [Ethyl phenylacetate] the CC50 at 24 h was greater than 90 µM.

Same assay, conditions: rat, gh3-tre-luc cells, AC50 (uM) modified / 1000, Tox21_110001=Tox21_303000; viability, 1 nM T3 present, 24 h

[Cl][Cd][Cl] [Cadmium chloride] gave a CC50 at 24 h of 32.6 µM.
